Source: patent US6924314B2, “Compounds for the treatment of metabolic disorders” (Wellstat Therapeutics Corporation, priority 2001, dated 2005)

Columns and labels:
[1] = test system: db/db mice; test: Antidiabetic effects in db/db mice, 2 weeks (Example I); type: in vivo, C57BL/Ksola mice; settings: for Glucose / Glucose (% of Control): nonfasting; for Free Fatty Acids ± SEM / Triglycerides ± SEM: serum
From the text: (§1) db/db mice have a defect in leptin signaling, leading to hyperphagia, obesity and diabetes. Moreover, unlike ob/ob mice on a C57BL/6J background, db/db mice on a C57BL/KS background undergo failure of their insulin-producing pancreatic islet β cells, resulting in progression from hyperinsulinemia (associated with peripheral insulin resistance) to hypoinsulinemic diabetes.
(§2) A minimum of 7 days was allowed for adaptation after arrival.
Treatment cohorts were given daily oral doses of (1% hydroxypropylmethylcellulose), Compounds BI, BO, BP, BQ or BR for 2 weeks. At the end of the treatment period 100 μl of venous blood was withdrawn in a heparinized capillary tube from the retro-orbital sinus of db/db mice for serum chemistry analysis.

[2] = test system: db/db mice; test: Antidiabetic effects in db/db mice, 2 weeks (Example J); type: in vivo, C57BL/Ksola mice; settings: for Glucose / Glucose (% of Control): nonfasting; for Free Fatty Acids ± SEM / Triglycerides ± SEM: serum, daily oral
From the text: as §1, with “islet” for “islet β”
as §2
Treatment cohorts were given daily oral doses of Vehicle (1% hydroxypropylmethylcellulose), Compounds BI, BS, BT, BU, BV or Fenofibrate for 2 weeks. At the end of the treatment period 100 μl of venous blood was withdrawn in a heparinized capillary tube from the retro-orbital sinus of db/db mice for serum chemistry analysis.

[3] = test system: ob/ob obese diabetic mice; test: Acute hypoglycemic effect in ob/ob obese diabetic mice: Experiment 1; type: in vivo
Protocol: Male ob/ob diabetic mice were randomized into groups of five animals each. Body weights were 50-55 g and blood glucose was approximately 300 mg/dL in the fed state. A single oral dose of a test substance suspended in 0.5% carboxymethylcellulose vehicle was administered by gavage. Blood glucose was measured in blood droplets obtained by nicking a tail vein with a razor using glucometer test strips and a Glucometer Elite XL device (Bayer) at 0, 0.5, 2, 4, 6 and 18 hours after the initial dosing. A 10% reduction in blood glucose versus oral vehicle is considered a positive screening result. Blood glucose reductions were generally maximal at 6 hours after drug administration.

[4] = test system: ob/ob obese diabetic mice; test: Acute hypoglycemic effect in ob/ob obese diabetic mice: Expt 2; type: in vivo; settings: single oral dose 250 mg/kg; for change in vivo at 250 mg/kg: Mus musculus, 6 hours, read-out: % Reduction vs Control
Protocol: Male ob/ob mice (50-55 grams; blood glucose ˜300 mg/dL) were divided into groups of five animals each, and given a single oral dose of test drug (250 mg/kg) suspended in 0.5% carboxymethylcellulose vehicle; a control group received oral vehicle alone.
Six hours after oral administration of test drugs or vehicle (control), blood samples were obtained from a tail vein and glucose content was determined with a glucometer.

[5] = test system: high fat-fed C57Bl/6J mice; test: Circulating triglycerides, free fatty acids, insulin and leptin in high fat-fed C57Bl/6J mice; type: in vivo; settings: for Free Fatty Acids / Triglycerides: after 2 weeks of drug treatments
From the text: The high fat-fed mouse is a model for the hypertriglyceridemia and high circulating fatty acid levels, and the insulin and leptin resistance that are found in people at risk for and with obesity, diabetes, cardiovascular disease and other disorders. Male C57Bl/6J mice, approximately 8 weeks of age, were randomly assigned into groups of 6 animals. […] Mice were fed a high-fat diet (diet number D12451, containing 45% of calories as fat (Research Diets, New Brunswick, N.J.)) for 6 weeks. […]

[6] = single oral dose by gavage, 6 hours

COc1cccc(OC)c1COc1cccc(C(=O)CCC(=O)O)c1 [BO, 4-(3-(2,6-Dimethoxybenzyloxy)phenyl)-4-oxobutyric acid]
Glucose ([1]; 100 mg/kg daily oral): 586 ± 58 mg/dL | Glucose (% of Control) ([1]; 100 mg/kg daily oral): 93 ± 9 % of Control | Free Fatty Acids ± SEM ([1]; 100 mg/kg daily oral): 3766.3 ± 234.5 µM | Triglycerides ± SEM ([1]; 100 mg/kg daily oral): 261.1 ± 24.3 mg/dL

Cc1cccc(C)c1COc1cccc(C(=O)CC(C)(C)C(=O)O)c1 [BP, 4-(3-(2,6-Dimethylbenzyloxy)phenyl)-4-oxo-2,2-dimethylbutyric acid]
Glucose ([1]; 100 mg/kg daily oral): 629 ± 86 mg/dL | Glucose (% of Control) ([1]; 100 mg/kg daily oral): 99 ± 14 % of Control | Free Fatty Acids ± SEM ([1]; 100 mg/kg daily oral): 3772.6 ± 182.5 µM | Triglycerides ± SEM ([1]; 100 mg/kg daily oral): 302.1 ± 28.1 mg/dL

O=C(O)CCC(=O)c1cccc(OCc2ccc(C(F)(F)F)cc2)c1 [BQ, 4-(3-(4-Trifluoromethylbenzyloxy)phenyl)-4-oxobutyric acid]
Glucose ([1]; 100 mg/kg daily oral): 473 ± 49 mg/dL | Glucose (% of Control) ([1]; 100 mg/kg daily oral): 75 ± 7 % of Control | Free Fatty Acids ± SEM ([1]; 100 mg/kg daily oral): 2825.9 ± 110.9 µM | Triglycerides ± SEM ([1]; 100 mg/kg daily oral): 131.6 ± 20.7 mg/dL

O=C(O)CCC(=O)c1cccc(OCC2CCC2)c1 [BR, 4-(3-((Cyclobutyl)-methoxy)phenyl)-4-oxobutyric acid]
Glucose ([1]; 82 mg/kg daily oral): 703 ± 64 mg/dL | Glucose (% of Control) ([1]; 82 mg/kg daily oral): 111 ± 10 % of Control | Free Fatty Acids ± SEM ([1]; 82 mg/kg daily oral): 3653.4 ± 207.5 µM | Triglycerides ± SEM ([1]; 82 mg/kg daily oral): 253.0 ± 32.0 mg/dL

Cc1cccc(C)c1COc1cccc(CCCC(=O)O)c1 [BS, 4-(3-(2,6-Dimethylbenzyloxy)phenyl)butyric acid]
Glucose ([2]; 93 mg/kg daily oral): 372.0 ± 53.8 mg/dL | Glucose (% of Control) ([2]; 93 mg/kg daily oral): 54 ± 8 % of Control | Free Fatty Acids ± SEM ([2]; dose per Table 12: 93 mg/kg): 2867.4 ± 267.7 µM | Triglycerides ± SEM ([2]; dose per Table 12: 93 mg/kg): 132.0 ± 15.2 mg/dL

COc1cc(C(=O)CCC(=O)O)ccc1OCc1c(C)cccc1C [BT, 4-[[4-(2,6-Dimethylbenzyloxy)-3-methoxy]phenyl]-4-oxobutyric acid]
Glucose ([2]; 107 mg/kg daily oral): 684.3 ± 63.6 mg/dL | Glucose (% of Control) ([2]; 107 mg/kg daily oral): 99 ± 9 % of Control | Free Fatty Acids ± SEM ([2]; dose per Table 12: 107 mg/kg): 3897.7 ± 291.3 µM | Triglycerides ± SEM ([2]; dose per Table 12: 107 mg/kg): 211.5 ± 21.5 mg/dL

COc1ccccc1COc1ccc(C(=O)CCC(=O)O)cc1 [Compound AB, 4-(4-(2-Methoxybenzyloxy)phenyl)-4-oxobutyric acid]
% Reduction vs Control [3, 6]: −39.1 ± 6.4% | Blood Glucose after 6 hours [3, 6]: 181 ± 19 mg/dL

O=C(O)CCC(=O)c1ccc(OCc2ccccn2)cc1 [Compound AF, 4-(4-((2-Pyridinyl)-methoxy)phenyl)-4-oxobutyric acid]
Blood Glucose after 6 hours [3, 6]: 314 ± 32 mg/dL | % Reduction vs Control ([3]; single oral dose, 6 hour reading normalized to initial blood glucose of this group, 416 ± 29 mg/dL): −24.6 ± 7.7 %

O=C(O)CCC(=O)c1ccc(OCc2ccccc2)cc1 [Compound AG, 4-(4-(Benzyloxy)phenyl)-4-oxobutyric acid]
% Reduction vs Control [3, 6]: −25.3 ± 7.7% | Blood Glucose after 6 hours [3, 6]: 222 ± 23 mg/dL

O=C(O)CCC(=O)c1ccc(OCc2ccccc2Cl)cc1 [Compound AI, 4-(4-(2-Chlorobenzyloxy)phenyl)-4-oxobutyric acid]
% Reduction vs Control [3, 6]: −14.1 ± 3.0% | Blood Glucose after 6 hours [3, 6]: 255 ± 9 mg/dL

O=C(O)CCC(=O)c1ccc(OCCc2ccccc2F)cc1 [Compound AJ, 4-(4-(2-(2-Fluorophenyl)ethoxy)phenyl)-4-oxobutyric acid]
% Reduction vs Control [3, 6]: −36.0 ± 4.7% | Blood Glucose after 6 hours [3, 6]: 190 ± 14 mg/dL

CCOC(=O)CCC(=O)c1ccc(OCc2ccccc2F)cc1 [Compound AK, Ethyl 4-(4-(2-fluorobenzyloxyl)phenyl)-4-oxobutyrate]
% Reduction vs Control [3, 6]: −29.3 ± 3.4% | Blood Glucose after 6 hours [3, 6]: 210 ± 10 mg/dL

Cc1ccccc1COc1ccc(C(=O)CCC(=O)O)cc1 [Compound AL, 4-(4-(2-Methylbenzyloxy)phenyl)-4-oxobutyric acid]
% Reduction vs Control [3, 6]: −43.4 ± 4.4% | Blood Glucose after 6 hours [3, 6]: 168 ± 13 mg/dL

Cc1ccccc1COc1cccc(C(=O)CCC(=O)O)c1 [Compound AN, 4-(3-(2-Methylbenzyloxy)phenyl)-4-oxobutyric acid]
change in vivo at 250 mg/kg [4]: -50.2 ± 4.5% | Blood Glucose after 6 hours [4]: 152 ± 11 mg/dL

CCOC(=O)CCC(=O)c1ccc(OCc2c(F)cccc2F)cc1 [Compound AQ, Ethyl 4-(4-(2,6-difluorobenzyloxyl)phenyl)-4-oxobutyrate]
change in vivo at 250 mg/kg [4]: -27.9 ± 4.2% | Blood Glucose after 6 hours [4]: 220 ± 17 mg/dL

O=C(O)CCC(=O)c1ccc(OCCc2cccs2)cc1 [Compound AR, 4-(4-(2-(2-Thienyl)ethoxy)phenyl)-4-oxobutyric acid]
change in vivo at 250 mg/kg [4]: -41.3 ± 4.2% | Blood Glucose after 6 hours [4]: 179 ± 14 mg/dL

O=C(O)CCC(=O)c1c(F)cccc1F [Compound AS, 4-(2,6-Difluorophenyl)-4-oxobutyric acid]
change in vivo at 250 mg/kg [4]: -45.2 ± 2% | Blood Glucose after 6 hours [4]: 167 ± 28 mg/dL

Cc1ccc(C)c(COc2ccc(C(=O)CCC(=O)O)cc2)c1 [Compound AT, 4-(4-(2,5-Dimethylbenzyloxy)phenyl)-4-oxobutyric acid]
change in vivo at 250 mg/kg [4]: -35.1 ± 2.3% | Blood Glucose after 6 hours [4]: 198 ± 28 mg/dL

O=C(O)CCC(=O)c1ccc(OCc2cc(F)ccc2F)cc1 [Compound AU, 4-(4-(2,5-Difluorobenzyloxy)phenyl)-4-oxobutyric acid]
change in vivo at 250 mg/kg [4]: -26.6 ± 2.8% | Blood Glucose after 6 hours [4]: 224 ± 26 mg/dL

O=C(O)CCC(=O)c1ccc(OCc2ccc(F)cc2F)cc1 [Compound AV, 4-(4-(2,4-Difluorobenzyloxy)phenyl)-4-oxobutyric acid]
change in vivo at 250 mg/kg [4]: -32.1 ± 3% | Blood Glucose after 6 hours [4]: 207 ± 23 mg/dL

O=C(O)CCC(=O)c1ccc(OCC2CC2)cc1 [Compound AX, 4-(4-((Cyclopropyl)-methoxy)phenyl)-4-oxobutyric acid]
change in vivo at 250 mg/kg [4]: -45.9 ± 2.4% | Blood Glucose after 6 hours [4]: 165 ± 23 mg/dL

O=C(O)CCC(=O)c1ccc(OCc2ccccc2C(F)(F)F)cc1 [Compound AY, 4-(4-(2-Trifluoromethylbenzyloxy)phenyl)-4-oxobutyric acid]
change in vivo at 250 mg/kg [4]: -39.3 ± 2.9% | Blood Glucose after 6 hours [4]: 185 ± 21 mg/dL

O=C(O)CCSCc1ccc(OCc2c(F)cccc2F)cc1 [Compound AZ, 3-[(4-(2,6-Difluorobenzyloxy)phenyl)-methylthio]propionic acid]
change in vivo at 250 mg/kg [4]: -39 ± 6.1% | Blood Glucose after 6 hours [4]: 186 ± 10 mg/dL

Cc1cccc(C)c1COc1cccc(C(=O)CCC(=O)[O-])c1.[Na+] [Compound BL, 4-(3-(2,6-Dimethylbenzyloxy)phenyl)-4-oxobutyric acid Sodium salt]
Free Fatty Acids ([5]; 10 mg/kg oral gavage): 1571.8 ± 100.9 µmol/L | Triglycerides ([5]; 10 mg/kg oral gavage): 80 ± 12.2 mg/dL | Free Fatty Acids ([5]; 30 mg/kg oral gavage): 1413.2 ± 228.7 µmol/L | Triglycerides ([5]; 30 mg/kg oral gavage): 66.4 ± 13.7 mg/dL | Free Fatty Acids ([5]; 100 mg/kg oral gavage): 1133.5 ± 132.7 µmol/L | Triglycerides ([5]; 100 mg/kg oral gavage): 41 ± 5.6 mg/dL | serum triglycerides and free fatty acids ([5]; oral gavage): effective at lowering | insulin serum levels ([5]; oral gavage, after 4 weeks of drug treatments (FIG. 1)): effective at lowering | leptin serum levels ([5]; oral gavage, after 4 weeks of drug treatments (FIG. 2)): effective at lowering

CC(C)OC(=O)C(C)(C)Oc1ccc(C(=O)c2ccc(Cl)cc2)cc1 [Fenofibrate, reference compound]
Glucose ([2]; 113 mg/kg daily oral): 563.2 ± 49.0 mg/dL | Glucose (% of Control) ([2]; 113 mg/kg daily oral): 81 ± 7 % of Control | Free Fatty Acids ± SEM ([2]; dose per Table 12: 113 mg/kg): 3318.5 ± 208.7 µM | Triglycerides ± SEM ([2]; dose per Table 12: 113 mg/kg): 109.3 ± 9.1 mg/dL

Cc1cccc(Nc2cc(Cl)nc(SCC(=O)O)n2)c1C [Wy14643, reference compound]
Free Fatty Acids ([5]; 10 mg/kg oral gavage): 1512.2 ± 172.9 µmol/L | Triglycerides ([5]; 10 mg/kg oral gavage): 70.6 ± 10.8 mg/dL | Free Fatty Acids ([5]; 30 mg/kg oral gavage): 1676 ± 237 µmol/L | Triglycerides ([5]; 30 mg/kg oral gavage): 88 ± 12.5 mg/dL | Free Fatty Acids ([5]; 100 mg/kg oral gavage): 1839.8 ± 154.8 µmol/L | Triglycerides ([5]; 100 mg/kg oral gavage): 88.4 ± 18.8 mg/dL
